In article PMC6803848, “Exploring New Structural Features of the 18β-Glycyrrhetinic Acid Scaffold for the Inhibition of Anaplastic Lymphoma Kinase” (Molecules, 2019):
≈ marks a conversion by molar mass, not a printed value.

What was measured:
A549 = experiment: MTT antiproliferative assay, A549 cells; format: cell-based; settings: Homo sapiens; for inhibition at 2 µg/mL: A549, 2 μg/mL; for inhibition at 2 µg/mL / inhibition at 20 µg/mL: 48 h, MTT, read-out: Antiproliferative activity (growth inhibition, %); for inhibition at 20 µg/mL: A549, 20 μg/mL; for IC50: A549, MTT
Experimental: (§1) All the cells were seeded in 96-well plates and incubated with 5% CO2 at 37 °C for 24 h. Next, the compounds and the reference were dissolved into the culture medium. The final concentration of DMSO in the medium was less than 0.5%. After the cells were treated with compounds for 48 h, the supernatant was removed and 5 mg/mL of a fresh prepared solution of MTT was added to each well and incubated with the cells at 37 °C for another 4 h. The medium was removed, and 100 μL of testing solution was added to each well. After an overnight incubation with 5% CO2 at 37 °C, the absorbance was measured at 490/630 nm by the microplate reader. The IC50 was calculated using GraphPad Prism version 6.0 software (San Diego, CA, USA) from the non-linear curve.

HT29 = experiment: MTT antiproliferative assay, HT29 cells; format: cell-based; settings: Homo sapiens, HT-29; for inhibition at 2 µg/mL: HT29, 2 μg/mL; for inhibition at 2 µg/mL / inhibition at 20 µg/mL: 48 h, MTT, read-out: Antiproliferative activity (growth inhibition, %); for inhibition at 20 µg/mL: HT29, 20 μg/mL; for IC50: HT29, MTT
Experimental: as §1

HepG2 [1] = experiment: MTT antiproliferative assay, HepG2 cells; format: cell-based; settings: Homo sapiens
Experimental: as §1

MCF-7 = experiment: MTT antiproliferative assay, MCF-7 cells; format: cell-based; settings: Homo sapiens, MCF7; MCF-7, MTT
Experimental: as §1

PC-3 = experiment: MTT antiproliferative assay, PC-3 cells; format: cell-based; settings: Homo sapiens; PC-3, MTT
Experimental: as §1

Karpas299 = experiment: MTT antiproliferative assay, Karpas299 cells; format: cell-based; settings: Homo sapiens, KARPAS-299
Experimental: as §1

ALK = ALK (Homo sapiens, UniProt Q9UM73); experiment: Kinase activity determination (ELISA), ALK; format: biochemical; settings: purified ALK, 10 μmol/L ATP solution, read-out: Inhibitory effect on ALK activity, IC50
Experimental: The effects of the compounds on the activities of the tyrosine kinase was determined using enzyme-linked immunosorbent assay (ELISA). Briefly, 20 μg/mL substrate [poly (Glu,Tyr)4:1], 50 μL aliquot of 10 μmol/L ATP solution diluted in kinase buffer (50 mmol/L HEPES pH 7.5, 50 mmol/L MgCl2, 0.5 mmol/L MnCl2, 0.2 mmol/L Na3VO4, and 1 mmol/L DTT) was added to each well; 1 μL of various concentrations of target compound and positive control drug diluted in 1% DMSO (v/v) were then added to each well. 1% DMSO was used as the negative control. After 5–10 min preincubation, the kinase reaction was initiated by the addition of purified ALK proteins diluted in 49 μL of kinase buffer. After 30 min preincubation, the anti-phosphotyrosine monoclonalantibody (100 μL; 1:500, diluted in 5 mg/mL BSA T-PBS) was then added. […] A 100 μL aliquot of a solution containing 0.03% H2O2 and 2 mg/mL o-phenylenediamine in 0.1 mol/L citrate buffer was added. The reaction was terminated by the addition of 50 μL of 2 mol/L H2SO4 as the color changed, and the plate was analyzed using a multi-well spectrophotometer at 490 nm.

LO2 cells = experiment: MTT cytotoxicity assay, non-tumorigenic liver LO2 cell; format: cell-based; settings: 0.064–40.0 μg/mL, 48 h, Figure 8
Experimental: Given the mentioned results, the most efficient compound 3j was selected for in depth study, and it was evaluated in different concentrations (0.064–40.0 μg/mL) towards HepG2 cell line and non-tumorigenic liver LO2 cell. A 48 h continuous drug exposure protocol was employed by the MTT cytotoxicity assay.
as §1

HepG2 [2] = experiment: MTT antiproliferative assay, HepG2 cells; format: cell-based, human; settings: five concentrations, 24, 48 or 72 h, Figure 7

ALK, sequence (Q9UM73 19-1620): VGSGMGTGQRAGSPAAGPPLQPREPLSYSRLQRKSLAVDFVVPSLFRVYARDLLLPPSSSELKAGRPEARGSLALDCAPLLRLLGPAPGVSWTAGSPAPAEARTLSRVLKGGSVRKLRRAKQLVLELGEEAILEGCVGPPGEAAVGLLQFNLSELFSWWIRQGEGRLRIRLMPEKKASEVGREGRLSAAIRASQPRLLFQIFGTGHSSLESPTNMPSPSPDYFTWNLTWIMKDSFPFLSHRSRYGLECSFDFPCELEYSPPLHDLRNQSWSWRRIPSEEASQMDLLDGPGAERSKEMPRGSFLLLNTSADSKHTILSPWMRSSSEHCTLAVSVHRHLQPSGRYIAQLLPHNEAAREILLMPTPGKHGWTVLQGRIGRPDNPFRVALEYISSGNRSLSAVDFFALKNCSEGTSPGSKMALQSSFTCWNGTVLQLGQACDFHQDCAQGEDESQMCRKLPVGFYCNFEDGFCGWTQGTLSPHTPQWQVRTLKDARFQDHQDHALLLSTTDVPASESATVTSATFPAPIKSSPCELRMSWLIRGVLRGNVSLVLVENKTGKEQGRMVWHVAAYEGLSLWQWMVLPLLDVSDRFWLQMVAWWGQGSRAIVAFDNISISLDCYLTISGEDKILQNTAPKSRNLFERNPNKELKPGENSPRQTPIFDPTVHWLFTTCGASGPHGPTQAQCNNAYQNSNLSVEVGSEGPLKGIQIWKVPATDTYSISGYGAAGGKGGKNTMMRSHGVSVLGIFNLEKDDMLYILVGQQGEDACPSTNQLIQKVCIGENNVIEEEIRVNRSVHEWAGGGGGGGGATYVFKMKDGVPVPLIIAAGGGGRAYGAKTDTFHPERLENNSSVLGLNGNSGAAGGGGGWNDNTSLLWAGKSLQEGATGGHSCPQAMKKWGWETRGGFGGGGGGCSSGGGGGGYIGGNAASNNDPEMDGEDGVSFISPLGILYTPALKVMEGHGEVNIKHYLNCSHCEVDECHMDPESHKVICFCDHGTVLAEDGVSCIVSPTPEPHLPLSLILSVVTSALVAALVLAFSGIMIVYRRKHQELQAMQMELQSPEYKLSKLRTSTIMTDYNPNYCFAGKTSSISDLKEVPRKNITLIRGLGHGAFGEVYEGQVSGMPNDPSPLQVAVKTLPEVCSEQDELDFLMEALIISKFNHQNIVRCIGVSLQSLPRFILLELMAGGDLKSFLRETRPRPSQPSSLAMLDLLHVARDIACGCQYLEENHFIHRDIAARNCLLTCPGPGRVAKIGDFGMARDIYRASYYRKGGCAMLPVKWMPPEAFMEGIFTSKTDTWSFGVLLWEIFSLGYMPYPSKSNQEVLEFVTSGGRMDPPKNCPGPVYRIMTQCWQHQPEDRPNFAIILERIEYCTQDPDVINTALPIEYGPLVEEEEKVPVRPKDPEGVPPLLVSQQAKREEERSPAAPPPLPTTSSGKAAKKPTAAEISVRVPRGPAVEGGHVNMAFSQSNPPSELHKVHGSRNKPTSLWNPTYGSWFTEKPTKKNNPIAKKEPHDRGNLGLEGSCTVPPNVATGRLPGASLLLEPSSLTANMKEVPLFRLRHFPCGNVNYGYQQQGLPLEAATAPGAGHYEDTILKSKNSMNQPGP

SMILES | inhibition at 2 µg/mL (A549) [%] | inhibition at 20 µg/mL (A549) [%] | IC50 (A549) [µg/mL] | inhibition at 2 µg/mL (HT29) [%] | inhibition at 20 µg/mL (HT29) [%] | IC50 (HT29) [µg/mL] | IC50 (HepG2 [1]) [µg/mL] | IC50 (MCF-7) [µg/mL] | IC50 (PC-3) [µg/mL] | IC50 (Karpas299) [µg/mL] | IC50 (ALK) [nM] | Toxic action towards LO2 cells (LO2 cells) | melting point [°C] | Inhibition of proliferation of HepG2 cell, concentration and time dependence (HepG2 [2])
CC1(C)C2CC[C@]3(C)[C@H](C(=O)C=C4[C@@H]5C[C@@](C)(C(=O)O)CC[C@]5(C)CC[C@]43C)[C@@]2(C)CC[C@@H]1OC(=O)Nc1cccc(C(F)(F)F)c1 (stereo partly drawn) [3j, 3β-(((3-(trifluoromethyl)phenyl)carbamoyl)oxy)-11-oxo-olean-12-en-30-oic acid] | 17.7 | 88.3 | 2.81 (≈ 4.27 µM) | 24.8 | 99.6 | 3.19 (≈ 4.85 µM) | 5.55 (≈ 8.44 µM) | 5.26 (≈ 8 µM) | 5.96 (≈ 9.06 µM) | 5.59 (≈ 8.5 µM) | 121 | did not exhibit significant toxic action | 239.1 to 240.7 | inhibited the proliferation of HepG2 cell in a significant concentration manner, whereas it did not occur in a time-dependent manner
CC1(C)C2CC[C@]3(C)[C@H](C(=O)C=C4[C@@H]5C[C@@](C)(C(=O)O)CC[C@]5(C)CC[C@]43C)[C@@]2(C)CC[C@@H]1OC(=O)Nc1cc(C(F)(F)F)cc(C(F)(F)F)c1 (stereo partly drawn) [3k, 3β-(((3,5-bis (trifluoromethyl)phenyl)carbamoyl)oxy)-11-oxo-olean-12-en-30-oic acid] | 18.8 | 88.8 | 2.93 (≈ 4.04 µM) | 10.8 | 94.8 | 6.47 (≈ 8.91 µM) | 11.2 (≈ 15.5 µM) | 7 (≈ 9.64 µM) | 10.3 (≈ 14.2 µM) | 9.16 (≈ 12.6 µM) | 278 | – | 248.8 to 251.7 | –
